≈ marks a conversion by molar mass, not a printed value.
Experiments:
[1] = test system: Herpes simplex virus (HSV-1); assay: Antiviral activity against Herpes simplex virus (HSV-1), CPE inhibition in Vero cells (Neutral Red); type: cell-based; settings: Human alphaherpesvirus 1, 50% inhibition of CPE, about 72 hours
Description: Antiviral activity against Herpes simplex virus (HSV-1) which is a DNA virus was tested by the following method.
Vero cells (originated from kidney cells of African Green Monkey) were cultured in MEM medium supplemented with 10% fetal bovine serum. One hundred μl of cell suspension (200,000 cells/ml) was plated into 96 wells plates (COSTAR) and cultured for 24 hours so that the culture became confluent. The medium was drawn, and cells were infected with HSV-1 virus for one hour. After drawing the virus fluid, cells were cultured for about 72 hours in a fresh medium containing test samples. The survived cells were stained with Neutral Red solution and absorbance at a wavelength of 546 nm (A546) was measured to evaluate the cytopathic effect (CPE).
CPE inhibition (%) was calculated as follows: [formula] Sample concentration required for 50% inhibition of the CPE was calculated as IC50 (μg/ml).

[2] = test system: Human Immonodeficiency Virus (HIV); assay: Antiviral activity against HIV (HTLV-IIIB strain) in MT-4 cells, HIV antigen-positive cells by indirect immunofluorescence; type: cell-based, HTLV-IIIB strain of HIV; settings: Human immunodeficiency virus 1, MT4, 96 h, 4 days
Description: Antiviral activity against Human Immonodeficiency Virus (HIV) belonging to RNA virus was examined by the following method: MT-4 cells […] in 0.5 ml of RPMI 1640 culture medium were seeded into 48-well plates, and 50 μl of test compounds were added to various concentrations. The cells were incubated at 37° C. for 2 hours in 5% (v/v) carbondioxide incubator. Then, 50 μl of the HTLV-IIIB strain of HIV (2.5×10^5 to 5×10^5 PFU/ml) was inoculated onto the cells. After 4 days, a part of the cells were applied onto a slide glass and immobilized with acetone. The percentages of HIV antigen-positive MT-4 cells were determined by indirect immunofluorescence assay. As the primary antibody, serum of AIDS patients was used. As the secondary antibody, FITC-labelled anti-human IgG was used.

[3] = test system: hepatitis B virus (HBV); assay: Antiviral activity against hepatitis B virus (HBV), viral DNA synthesis inhibition in HB611 cells; type: cell-based; settings: 360 h, drug concentration required for 50% inhibition of viral DNA synthesis, densitometry, read-out: Anti-HBV activity ID50
Description: Antiviral activity against hepatitis B virus (HBV) which is a DNA virus was tested by the following method.
The test was done by using a cell line, HB611, that was established by transfection and continuously produces HBV-like particles [Proc. Natl. Acad. Sci. USA, 84, 444-449, 1987]. HB611 cells were maintained in Dulbecco's modified Eagle medium (Gibco) supplemented with fetal bovine serum (Gibco), 100 μg/ml of streptomycin, […] of benzyl penicillin (Gibco) and 200 μg/ml of geneticin (Gibco) at 37° C. in 5% CO2 -95% air.
The cells were seeded in 24-well plate (Corning) at a density of 3×10^4 cells/well, using 1.0 ml of the medium. After 2 days of incubation, the medium was replaced with the same medium containing the test compound. The cells were incubated for a further 15 days, during which time the medium containing the drug was exchanged every three days. […]
The results which was autoradiographed were analyzed using a densitometric analyzer (Shimadzu, Chromatoscana S930).
To quantitatively evaluate the inhibitory activity of the compounds, there were measured the band areas S, D, D2 (S, D1 and D2 represent intracellular free HBV DNA derived from replicative intermediates) and I (represents chromosomally integrated HBV DNA) by densitometric analyzer, and calculated the inhibition percentage as follows: [formula] […]

| Compound | IC50 [1] [µg/mL] | IC50 [2] [µg/mL] | also measured |
| --- | --- | --- | --- |
| Nc1nc2c(ncn2[C@H]2CC[C@H](CO)[C@@H](CO)C2)c(=O)[nH]1 [Example 21, 9-[(1S,3S,4S)-3,4-Bis(hydroxymethyl)-cyclohexyl]-guanine] | 2.77 (≈ 9.44 µM) | – | – |
| Nc1ncnc2c1ncn2[C@@H]1C[C@H](CO)[C@@H](CO)C[C@H]1O [Example 13, 9-[(1R,2R,4S,5S)-4,5-Bis(hydroxymethyl)-2-hydroxycyclohexyl]-adenine] | – | 55 (≈ 188 µM) | – |
| Nc1ncnc2c1ncn2[C@@H]1CC[C@H](CO)[C@H]1CO [Example 5, 9-[(1R,2R,3S)-2,3-Bis(hydroxymethyl)-1-cyclopentyl]-adenine] | – | – | IC50 [3]: 0.24 µg/mL (≈ 0.912 µM) |

More lines, main results first:

| IC50 [1] [µg/mL] | IC50 [2] [µg/mL] | Compound | also measured |
| --- | --- | --- | --- |
| 45.9 (≈ 148 µM) | – | Nc1nc2c(ncn2[C@@H]2C[C@H](CO)[C@@H](CO)C[C@H]2O)c(=O)[nH]1 [Example 18, 9-[(1R,2R,4S,5S)-4,5-Bis(hydroxymethyl)-2-hydroxycyclohexyl]-guanine] | – |
| – | 4.5 (≈ 16.2 µM) | Nc1ncnc2c1ncn2[C@H]1CC[C@H](CO)[C@@H](CO)C1 [Example 16, 9-[(1S,3S,4S)-3,4-Bis(hydroxymethyl)-cyclohexyl]-adenine] | – |
